# Literature values, collected in US6458386B1, “Medicaments based on polymers composed of methacrylamide-modified gelatin” (Innogenetics N.V., priority 1997, dated 2002).
# What was measured:
# [1] = system: large cutaneous burns; settings: children
# [2] = system: chronic pressure ulcers; settings: humans
# [3] = system: full thickness macular holes; settings: human eyes
substance,measurement,setting,value
Human Growth Hormone: hormone,wound healing of large cutaneous burns,[1],accelerate wound healing
Platelet Derived Growth Factor,wound healing of chronic pressure ulcers,[2],wound healing stimulator
Transforming Growth Factor-β,effect in treatment of full thickness macular holes,[3],beneficial effects
